From patent US8383550B2, “Defoliant” (Bayer Cropscience AG, priority 2009, dated 2013)

Experiments:
[1] = test system: Cotton plants of the cultivar "Carmen"; assay: Regrowth of cotton plants, by weighing newly formed leaf material; assay type: in vivo; details: 2 weeks after application, 1 l/ha Actirob B added, repeated twice
Experimental: (§1) A water application rate of 300 l/ha was initially charged. The components herbicide and adjuvant were then added with stirring at the application rates and in the manner stated in the tables, such that a homogeneous spray liquor was formed. Here, the active ingredients were employed as suspension concentrates (thidiazuron as ®Escalate liquid SC500. Metribuzin as ®Sencor SC 80, thidiazuron+diuron as ®Dropp Ultra SC180) from Bayer CropScience AG. The adjuvant used was ®Actirob B (Novance).
(§2) Cotton seeds of the cultivar “Carmen” were sown at a depth of 1 cm and cultivated in a greenhouse cabin (20000-50000 LUX light: 14 hrs/day; temperature at night: 22° C., during the day: 30° C., rel. atmospheric humidity at night: 65%, during the day 50%) until they had reached the 6-8 leaf stage.
(§3) The plants were treated on a laboratory spray track with spray liquors of thidiazuron and thidiazuron with combination partners. The water application rate for the spray application was 300 l/ha. After the treatment, the plants were returned to the greenhouse cabin.
2 weeks after the application, the regrowth of the plants was assessed by weighing the newly formed leaf material. The tabular values express the regrowth as a percentage of the untreated control.

[2] = test system: Cotton plants of the cultivar "Carmen"; assay: Leaf drop effect on cotton plants after spray application (greenhouse); assay type: in vivo; details: 1 l/ha Actirob B added
Experimental: as §1, §2, §3
4 and 8 days after the application, the leaf drop effect was evaluated (leaf drop %): • 0%=no noticeable effect compared to untreated plants; • 100%=all leaves have dropped off.

[3] = Test 1, dose 30 g of a.i./ha, 0%=no effect, 100%=all leaves dropped

Structure (SMILES)	Regrowth [%] as a percentage of the untreated control ([1]; Table 3, dose 15 g of a.i./ha) [%]	Regrowth [%] as a percentage of the untreated control ([1]; Table 3, dose 30 g of a.i./ha)	Regrowth [%] as a percentage of the untreated control ([1]; Table 4, dose 15 g of a.i./ha) [%]	Regrowth [%] as a percentage of the untreated control ([1]; Table 4, dose 30 g of a.i./ha) [%]	Leaf drop [%] 4 days after application ([2]; Test 1, dose 15 g of a.i./ha) [%]	Leaf drop [%] 8 days after application ([2]; Test 1, dose 15 g of a.i./ha) [%]	Leaf drop [%] 8 days after application ([2]; Test 1, dose 30 g of a.i./ha) [%]	Leaf drop [%] 4 days after application [2, 3] [%]	Leaf drop [%] 4 days after application ([2]; Test 2, dose 15 g of a.i./ha) [%]	Leaf drop [%] 8 days after application ([2]; Test 2, dose 15 g of a.i./ha) [%]	Leaf drop [%] 4 days after application ([2]; Test 2, dose 30 g of a.i./ha) [%]	Leaf drop [%] 8 days after application ([2]; Test 2, dose 30 g of a.i./ha) [%]
CSc1nnc(C(C)(C)C)c(=O)n1N [metribuzin]	0	0%	0	0	0	0	0	0	0	0	0	0
O=C(Nc1ccccc1)Nc1cnns1 [thidiazuron]	–	+60%	–	–	–	–	63	0	–	–	–	–
